We go through twelve compounds from PMC4746285, “Functional Analysis of the Citrate Activator CitO from Enterococcus faecalis Implicates a Divalent Metal in Ligand Binding” (Frontiers in Microbiology, 2016).

In one data set the target is TM0439. Also noted: method as in Zheng et al., 2009. The settings on record: ref Zheng et al., 2009; cited from earlier work.
For data set [1], the target named is T1, CitO-wt (Enterococcus faecalis, UniProt Q82YV4). Format: biochemical. The settings on record: for Effect on CitO-PcitH−CL complex formation: EDTA-treated CitO-wt.
The target of data set [2] is T1, CitO-wt. In kind it is binding. As for the experimental part: The assay was carried out as described earlier (Pagliai et al., [2010]). Briefly, CitO (10 μM), in presence or absence of increasing concentrations of citrate or malate (the latter was used as a negative control), was placed (in duplicate) into 96-well plates (Bio-Rad, Hercules, CA) and heated from 25 to 80°C at the rate of 1°C per min. The unfolding of the protein was monitored by the increase in fluorescence of the fluorophore SYPRO Orange (Invitrogen). Fluorescence intensities were plotted against temperature for each sample well and transition curves were fitted with the Boltzmann equation using Origin 8 software (Northampton, MA). The midpoint of each transition curve was calculated and values obtained in presence of the ligand compared to those calculated for CitO in absence of the ligand.

The subject of data set [3] is T2, CitO-L214A L214A (Enterococcus faecalis), ORF:7f2fe6d0.
T2 sequence: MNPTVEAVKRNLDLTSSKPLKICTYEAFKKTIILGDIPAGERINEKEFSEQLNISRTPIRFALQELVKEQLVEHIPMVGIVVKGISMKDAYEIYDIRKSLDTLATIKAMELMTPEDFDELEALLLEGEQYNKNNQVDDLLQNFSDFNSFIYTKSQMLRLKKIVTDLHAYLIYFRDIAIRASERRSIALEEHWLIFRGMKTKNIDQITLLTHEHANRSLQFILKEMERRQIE
Nature of the data set: EMSA. On the technique in general: A gel shift assay detects complexes by their altered migration in electrophoresis.

Data set [4] has as its target T3, CitO-H74A (Enterococcus faecalis, UniProt Q82YV4, H74A). In kind it is binding. The settings on record: DSF.
The target of data set [5] is T4, CitO-F143A (Enterococcus faecalis, UniProt Q82YV4, F143A). As to the kind of experiment: biochemical. Format: binding.
Data set [6] concerns CitO-R97A. Format: biochemical. The settings on record: EMSA, 5 mM citrate.
In data set [7] the test system is CitO-R97A. In kind it is binding. The settings on record: DSF, citrate up to 1 mM.
Data set [8] has as its system CitO-H191A. Format: biochemical. The settings on record: EMSA, 5 mM citrate.
A further data set has as its system CitO. Further details: method as in Blancato et al., 2008. The settings on record: in vivo and in vitro experiments; ref Blancato et al., 2008; cited from earlier work.
The target in data set [9] is T5, CitO-Q64A (Enterococcus faecalis, UniProt Q82YV4, Q64A). Nature of the data set: biochemical. Format: binding.
The target in data set [10] is T6, CitO-L214A (Enterococcus faecalis, UniProt Q82YV4, L214A). Format: biochemical.
In data set [11] the target is T3, CitO-H74A. Format: biochemical. The settings on record: EMSA, 5 mM citrate.
In data set [12] the target is T5, CitO-Q64A. In kind it is biochemical. The settings on record: EMSA, 5 mM citrate.
Data set [13] addresses T4, CitO-F143A. In kind it is biochemical. The settings on record: EMSA, 5 mM citrate.
Data set [14] has as its target T4, CitO-F143A. Format: binding. The settings on record: DSF, 50 μM citrate, Tm = 50°C without citrate.
In data set [15] the target is T3, CitO-H74A. As to the kind of experiment: biochemical. Format: binding.
For data set [16], the system named is CitO-H191A. In kind it is binding. The settings on record: DSF, citrate up to 1 mM.
The target of data set [17] is CitO-R97A. Format: binding. The settings on record: ITC, 25°C, ni = no interaction.
Data set [18] deals with T6, CitO-L214A. In kind it is binding. The settings on record: DSF, only at 50 μM citrate or higher.
Data set [19] concerns the target T1, CitO-wt. As to the kind of experiment: Isothermal titration calorimetry of CitO-wt with citrate. In kind it is binding. As for the experimental part: Measurements were performed on a VP-Microcalorimeter (MicroCal, Northampton, MA) at 25°C. The proteins were thoroughly dialyzed against 10 mM Tris (pH 8.0), 500 mM NaCl, and 2.5% glycerol. A solution of citrate (1 mM, pH 8.0) was directly prepared in dialysis buffer. Each titration involved a series of 3 μl injections of the effector molecule into the protein solution. The mean enthalpies measured from injection of the ligand in the buffer were subtracted from raw titration data prior to data analysis with Origin 8 software (MicroCal). Titration curves were fitted by a nonlinear least squares method to a function for the binding of a ligand to a macromolecule (Wiseman et al., [1989]). From the curve thus fitted, the parameters ΔH (reaction enthalpy), KA (binding constant, KA = 1/KD), and N (reaction stoichiometry) were determined. From the values of KA and ΔH, the changes in free energy (ΔG) and entropy (ΔS) were calculated with the following equation: ΔG = −RT lnKA = ΔH−TΔS; where R is the universal molar gas constant and T is the absolute temperature.
Background: ITC needs no label: the signal is the heat of the interaction.

In data set [20] the target is CitO-H191A. Format: binding. The settings on record: ITC, 25°C, ni = no interaction.
The target of data set [21] is T6, CitO-L214A. As to the kind of experiment: biochemical. Format: binding.
The test system of the next data set is PcitCL promoter activity. Nature of the data set: β-galactosidase assay, PcitCL fusion to lacZ in JHB14 strains expressing CitO variants. In kind it is cell-based, E. faecalis. The settings on record: for β-galactosidase activity: LB with 17 mM citrate.
Data set [22] addresses T5, CitO-Q64A. Format: binding. The settings on record: DSF.
Data set [23] addresses CitO, regulator of citrate metabolism from Enterococcus faecalis (Enterococcus faecalis). As to the kind of experiment: SEC; Superdex 75; 200 ul of 28.4 uM CitO, with or without 1 mM citrate (pH 8.0), 30 min on ice before injection; 50 mM Tris pH 7.6, 300 mM NaCl, 5% glycerol; 4°C; mass from a standard curve of protein standards. (In general: Size exclusion chromatography separates by hydrodynamic size, large species first.)

Where [24] appears, read: EMSA, 0.2 μM CitO-wt, Me2+ 2 mM, absence of citrate.
Setting [25] is: EMSA, Me2+ 2 mM together with 5 mM citrate.
Where [26] appears, read: DSF, CitO-wt, ligand added, without ligand Tm1 = 43°C, Tm2 = 58°C.

Read-outs that look alike come from different tables or passages of the source.

As to `[Zn+2]` [Zn^2+], the KD result on TM0439 is “nanomolar range”. Moreover, on CitO-wt [1] (setting [24]), the “Effect on binding of CitO to PcitH−CL” value is given as “decreased the binding”. The “Effect on CitO-PcitH−CL complex formation” value at CitO-wt [1] (setting [25]) is “increased the stability of the larger CitO-PcitH−CL complexes”.

Take succinate: at CitO-wt [2], the “Shift in the Tm2” value is given as “did not show a shift in the Tm2”.

`[Ca+2]` [Ca^2+]: the “Effect on binding of CitO to PcitH−CL” value on CitO-wt [1] (setting [24]) is listed as “did not modify the binding”.

On to `O=C(O)CN(CCN(CC(=O)O)CC(=O)O)CC(=O)O` [EDTA], for which the “Effect on binding of CitO to PcitH−CL” value at CitO-wt [1] is “decreased the binding”.

For the compound `[Ni+2]` [Ni^2+], the KD result at TM0439 was “nanomolar range”. For the same compound, the “Effect on binding of CitO to PcitH−CL” value on CitO-wt [1] (setting [24]) is listed as “decreased the binding”. Also, the “Effect on CitO-PcitH−CL complex formation” value at CitO-wt [1] (setting [25]) is listed as “increased the stability of the larger CitO-PcitH−CL complexes”.

Regarding `O=C(O)CC(C(=O)O)C(O)C(=O)O` (stereo not shown) [isocitrate], on CitO-wt [2] (setting [26]), the “Shift in the Tm2” value is reported as “did not show a shift in the Tm2”.

Consider `[Mn+2]` [Mn^2+], for which, at CitO-wt [1] (setting [24]), the “Effect on binding of CitO to PcitH−CL” value is recorded as “did not modify the binding”.

Turning to “GGTATACGTTCATTATAGAAAAAACCGTTAAAAAACCTAGTGAAAACACTAGCTCAGATTGTTCTTTTATTGTTTATTTTGTGAAAAAAACTCTGTAAACATTGGTATATAAGCATTTATCAGCCGTTAAGATTCTATTAATATTATATTAAGTTATTAATAAGAATTTGATTGTTGAATTGTTTTTTTGATGTTCTTTTTGTTTTAGGCTATTTATTCTCTGCGAAAGTTTGTATATTCTCACAC (double strand) [PcitH-CL]”, the binding result in [3] is “binds”.

As a reminder, the Kd is the concentration at which binding is half-saturated. For orientation: Tm means the temperature at the midpoint of the melting transition. For the compound `O=C(O)CC(O)(CC(=O)O)C(=O)O` [citrate], the “Interaction with citrate in solution” value on CitO-H74A [4] is “still able to interact with citrate”. The dissociation constant (Kd) on CitO-F143A [5] came to 440 ± 80 nM; at CitO-Q64A [9], 770 ± 100 nM; at CitO-H74A [15], 820 ± 40 nM; on CitO-wt [19], 1200 ± 200 nM; on CitO-L214A [21], 1200 ± 200 nM. In addition, the ΔG on CitO-F143A [5] (ITC, CitO-F143A) was -8.6857 kcal/mol; at CitO-Q64A [9] (ITC, CitO-Q64A) it was -8.34 kcal/mol; on CitO-H74A [15] (ITC, CitO-H74A), -8.4346 kcal/mol; at CitO-wt [19] (ITC, CitO-wt) it was -7.9834 kcal/mol; at CitO-L214A [21] (ITC, CitO-L214A) it was -8.07 kcal/mol. Moreover, the ΔH on CitO-F143A [5] (ITC, CitO-F143A) was found to be 16.02 kcal/mol; on CitO-Q64A [9] (ITC, CitO-Q64A), 6.724 kcal/mol; at CitO-H74A [15] (ITC, CitO-H74A), 6.5 kcal/mol; at CitO-wt [19] (ITC, CitO-wt) it was 6.122 kcal/mol; at CitO-L214A [21] (ITC, CitO-L214A), 5.78 kcal/mol. For the same compound, the “Effect on formation of protein:DNA complexes” value in the data set with CitO-R97A [6], with CitO-H191A [8] and at CitO-H74A [11] was “did not modify the formation of protein:DNA complexes” each time. Further, the “Denaturation temperature in presence vs absence of citrate” value with CitO-R97A [7] and in the data set on CitO-H191A [16] was “denatured at similar temperature” in each case. Also, in the data set on CitO, the “Activation of CitO” value is “specifically activated only by citrate”. The “Effect on binding to PcitH−CL” value at CitO-L214A [10] was “increased the binding”. On CitO-wt [1] (EMSA, CitO-wt, citrate up to 5 mM), the “Stability of the CitO-DNA complexes” value is reported as “increased”. Also, the “Effect on CitO-PcitH−CL complex formation” value on CitO-wt [1] (EMSA, 5 mM citrate alone) was “improved the formation of intermediate complexes”. Moreover, the “Ability to bind the DNA probe in presence of citrate” value on CitO-Q64A [12] is listed as “comparable to the wild type”. Also, the “Shift of protein:DNA complex” value on CitO-F143A [13] was “strong shift”. On CitO-F143A [14], the Tm was 57 °C. Also, the KD result on CitO-R97A [17] is “did not interact and ni^*”; on CitO-H191A [20], “did not interact and ni^*”. At CitO-L214A [18], the “ΔTm (increase in Tm2)” value worked out at 4 °C. The “Shift in the Tm2” value on CitO-wt [2] (setting [26]) is reported as “induced a shift in the Tm2”. Further, the “ΔS (entropy change)” value at CitO-wt [19] (ITC, CitO-wt) came to 47.3 cal/mol/deg. The same compound yielded a TΔS on CitO-L214A [21] (ITC, CitO-L214A) of 46.5 cal/mol/deg. In addition, in the data set with PcitCL promoter activity, the “Increment in the β-galactosidase activity” value is given as 64 fold. Further, the β-galactosidase activity result in the data set on PcitCL promoter activity (CitO-H191A strain) is “very low β-galactosidase activity”; in the data set on PcitCL promoter activity (CitO-R97A strain) it was “very low β-galactosidase activity”; in the data set on PcitCL promoter activity (strain carrying CitO-H74A), “reduced β-galactosidase activity”; with PcitCL promoter activity (strain containing CitO-F143A), “induced”; in the data set on PcitCL promoter activity (strain containing CitO-Q64A) it was “induced”; with PcitCL promoter activity (strain containing CitO-wt), “induced”. In addition, on CitO-Q64A [22] (5 μM citrate), the “Shift in Tm” value is recorded as “clear shift in Tm”. The Thermal stability entry at CitO-Q64A [22] (50 μM citrate) is recorded as “higher stability”.

Broadly, the stoichiometry N is the number of molecules, sites or subunits per partner or assembly. In [23], “CitO, regulator of citrate metabolism from Enterococcus faecalis (natural protein)” came in with a stoichiometry N of 2.

For the compound `O=C(O)CC(O)C(=O)O` (stereo not shown) [malate], at CitO-wt [2] (setting [26]), the “Shift in the Tm2” value is on record as “did not show a shift in the Tm2”.

Consider `[Mg+2]` [Mg^2+], for which the “Effect on binding of CitO to PcitH−CL” value at CitO-wt [1] (setting [24]) is “did not modify the binding”.
